Data on three compounds can be found in patent US7009088B1, “Methods of modulating auxin production in plants” (priority 2000, dated 2006).

One data set concerns Arabidopsis seedlings. Nature of the data set: Seedling growth on media supplemented with IAN (auxin phenotype). The class given is in vivo. The text has this: Four nitrilases, differentially expressed during development and in response to environmental cues, catalyze hydrolysis of IAN to IAA in Arabidopsis (Bartel and Fink (1994) Proc. Natl. Acad. Sci. USA 91:6649–6653). The nitl mutant is insensitive to the auxin effects of exogenously applied […] at the seedling stage (Normanly et al. (1997) Plant Cell 9:1781–1790). In accordance with the observed insensitivity of nit1 seedlings to IAN, NIT1 is most strongly expressed in the hypocotyl near the junction with the root in young seedlings as well as in the cotyledons. In contrast, NIT2 and NIT3 are expressed primarily in the cotyledons and NIT4 is expressed in the root tip (Bartel and Fink (1994) Proc. Natl. Acad. Sci. USA 91:6649–6653).

For a further data set, the target named is T1, NIT1 (Arabidopsis thaliana, UniProt P32961).
T1 sequence (P32961 1-346): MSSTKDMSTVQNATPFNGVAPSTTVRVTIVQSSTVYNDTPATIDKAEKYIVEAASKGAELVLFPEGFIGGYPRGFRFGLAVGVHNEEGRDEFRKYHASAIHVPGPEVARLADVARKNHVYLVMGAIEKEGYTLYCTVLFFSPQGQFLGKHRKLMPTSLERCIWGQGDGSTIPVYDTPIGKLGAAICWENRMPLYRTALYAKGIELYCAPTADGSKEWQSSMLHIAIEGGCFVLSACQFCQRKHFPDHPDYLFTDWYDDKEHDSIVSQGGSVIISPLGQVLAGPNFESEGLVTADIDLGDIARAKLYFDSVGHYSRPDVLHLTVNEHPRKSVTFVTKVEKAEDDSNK
The conditions noted are these: cited from earlier work.

The next data set has as its target T2, NIT2 (Arabidopsis thaliana, UniProt P32962).
T2 sequence (P32962 1-339): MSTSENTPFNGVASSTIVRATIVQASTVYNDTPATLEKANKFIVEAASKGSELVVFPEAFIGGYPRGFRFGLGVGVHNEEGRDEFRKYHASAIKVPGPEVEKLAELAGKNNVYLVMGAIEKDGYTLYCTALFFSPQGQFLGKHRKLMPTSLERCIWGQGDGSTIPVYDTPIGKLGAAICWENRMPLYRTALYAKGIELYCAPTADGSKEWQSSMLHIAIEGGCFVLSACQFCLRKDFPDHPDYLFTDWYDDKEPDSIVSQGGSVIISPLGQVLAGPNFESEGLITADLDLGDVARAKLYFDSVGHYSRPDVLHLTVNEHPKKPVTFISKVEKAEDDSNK
The conditions noted are these: cited from earlier work.

The target in data set [1] is T3, CYP83B1 (Arabidopsis thaliana, UniProt O65782).
T3 sequence (O65782 1-499): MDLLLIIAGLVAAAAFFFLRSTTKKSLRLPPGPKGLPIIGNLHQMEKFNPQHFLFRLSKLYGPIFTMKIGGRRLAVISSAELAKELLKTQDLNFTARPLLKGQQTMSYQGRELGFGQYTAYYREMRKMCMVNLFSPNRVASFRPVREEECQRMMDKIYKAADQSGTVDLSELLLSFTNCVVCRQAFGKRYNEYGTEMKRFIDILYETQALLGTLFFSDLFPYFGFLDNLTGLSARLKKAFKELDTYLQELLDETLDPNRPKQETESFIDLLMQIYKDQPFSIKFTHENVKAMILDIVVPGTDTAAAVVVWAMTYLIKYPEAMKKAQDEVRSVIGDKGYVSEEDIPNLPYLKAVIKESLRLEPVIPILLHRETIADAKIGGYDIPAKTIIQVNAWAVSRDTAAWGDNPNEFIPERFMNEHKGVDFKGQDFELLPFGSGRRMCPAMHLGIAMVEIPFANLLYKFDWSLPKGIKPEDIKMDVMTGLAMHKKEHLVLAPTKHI
The experiment in a line: Optical difference (binding) spectroscopy of yeast microsomes containing CYP83B1. As to the method: (§1) FIG. 3. (A) Analysis of CYP83B1 by optical difference spectroscopy. […] After incubation for 10 min at 28° C. reaction mixtures were extracted with ethylacetate and analyzed by TLC. (s) substrate, (p) product.

In data set [2] the target is T3, CYP83B1. Nature of the data set: CYP83B1 catalysis of [5-3H]indole-3-acetaldoxime metabolism in yeast microsomes. The protocol:
as §1
After incubation, reaction mixtures were stopped by adding SDS to 0.4% and were analyzed by thin layer chromatography (TLC). TLC plates were developed in chloroform/methanol/water (85:14:1) and radioactive bands visualized by autoradiography.
Reactions were stopped and extracted with ethylacetate. Aliquots of the substrate-containing ethylacetate phase and product-containing water phase were subjected to liquid scintillation counting.

The next data set concerns wild type seedlings. Nature of the data set: Indole glucosinolate levels in seedlings grown on MS agar, quantified as SCN. The format is in vivo, Arabidopsis. The conditions noted are these: wild type seedlings germinated on MS media with 100 μM compound, two week old, versus wild type. As to the method: FIG. 6. Indole glucosinolate levels are affected by CYP83B1 expression. Indole glucosinolates in individual two week old seedlings grown on MS agar were quantified calorimetrically as SCN. 1) Wild type, 2) rnt1-1, 3) molecularly complemented line 3.25.11, 4) overexpression line 1.4.7, and 5) wild type grown on 100 μM tryptamine. Data are represented as the mean±S.E, (n=10 seedlings). Except for the molecularly complemented line 3.25.11, mean indole glucosinolate values all differ from wild type seedling values at a 1% confidence value (t-test).
Tryptophan-derived indole-3-acetaldoxime is also an intermediate in the biosynthesis of indole glucosinolates.

Broadly, the Kd is the equilibrium constant for the complex coming apart. Low readings indicate higher affinity, high ones lower affinity. Broadly, the Km is the concentration of substrate that gives half-maximal velocity.

Regarding `N#CCc1c[nH]c2ccccc12` [IAN, indole-3-acetonitrile], the “effect on germination / IAA phenotype” value in the data set on Arabidopsis seedlings (rnt1-1 seedlings on 50 μM) is “almost completely inhibiting germination”. The seedling phenotype entry in the data set with Arabidopsis seedlings (wild type seedlings on media supplemented with 50 μM) is “phenocopy rnt1-1 seedlings”. The “Km for IAN hydrolysis” value at NIT1 and at NIT2 was “in the mM range” each time.

On CYP83B1 [1], `ON=CCc1c[nH]c2ccccc12` [indole-3-acetaldoxime] gave a Kd of 0.2 µM. In addition, the turnover at CYP83B1 [2] (in the presence of cysteine, 2.2 nM CYP83B1, 1 min at 28° C.) amounted to 53 min⁻¹. Moreover, the Michaelis-Menten constant (Km) on CYP83B1 [2] (read-out: Michaelis-Menten constant Km, in the presence of cysteine, 2.2 nM CYP83B1, 1 min at 28° C.) was found to be 3 µM.

Turning to `NCCc1c[nH]c2ccccc12` [tryptamine], the Kd at CYP83B1 [1] was 24 µM. Also, the “inhibition of indole-3-acetaldoxime oxidation” value at CYP83B1 [2] (17.5 mM tryptamine, 35 μM [5-3H]indole-3-acetaldoxime, 22 nM CYP83B1, 10 min at 28° C., TLC) is reported as “inhibitor”. Moreover, the indole glucosinolate levels entry in the data set on wild type seedlings was “reduced levels”.
